Data from patent publication US20080132522A1, “2-Substituted Pyrimidines, Method for Their Production and Their Use for Controlling Pathogenic Fungi” (BASF Aktiengesellschaft, priority 2004, published 2008).

Assays:
Alternaria solani = test: Activity against early blight of tomato caused by Alternaria solani; type: in vivo; conditions: 250 ppm; tomato "Goldene Königin"; after 5 days; untreated 90% infected
Experimental: (§1) The active compounds were prepared separately as a stock solution with 25 mg of active compound which was made up to 10 ml with a mixture of acetone and/or DMSO and the emulsifier Uniperol® EL (wetting agent having emulsifying and dispersing action based on ethoxylated alkylphenols) in a volume ratio solvent/emulsifier of 99 to 1. The solution was then made up to 100 ml with water. This stock solution was diluted to the active compound concentration stated below using the solvent/emulsifier/water mixture described.
Activity Against Early Blight of Tomato Caused by Alternaria solani
Leaves of potted plants of the cultivar “Goldene Königin” were sprayed to runoff point with an aqueous suspension having the concentration of active compounds stated below. The next day, the leaves were inoculated with an aqueous spore suspension of Alternaria solani in 2% biomalt solution having a density of 0.17×10^6 spores/ml. The plants were then placed in a water-vapor-saturated chamber at temperatures of between 20 and 22° C. After 5 days, the disease on the leaves of the untreated, but infected control plants had developed to such an extent that the infection could be determined visually in %.

Pyrenophora teres = test: Activity against net blotch of barley caused by Pyrenophora teres, 1 day protective application; type: in vivo, Pyrenophora [syn. Drechslera] teres; conditions: 250 ppm; barley "Hanna"; after 6 days; untreated 90% infected
Experimental: The active compounds were prepared separately as a stock solution with 25 mg of active compound which was made up to 10 ml with a mixture of acetone and/or DMSO and the emulsifier Uniperol® EL (wetting agent having emulsifying and dispersing action based on ethoxylated alkylphenols) in a volume ratio solvent/emulsifier of 99 to 1. The solution was then made up to 100 ml with water. This stock solution was diluted to the active compound concentration stated below using the solvent/emulsifier/water mixture described. Activity Against Net Blotch of Barley Caused by Pyrenophora teres, 1 Day Protective Application Leaves of potted barley seedlings of the cultivar “Hanna” were sprayed to runoff point with an aqueous suspension having the concentration of active compounds stated below. 24 hours after the spray coating had dried on, the test plants were inoculated with an aqueous spore suspension of Pyrenophora [syn. Drechslera] teres, the net blotch pathogen. The test plants were then placed in a greenhouse at temperatures between 20 and 24° C. and 95 to 100% relative atmospheric humidity. After 6 days, the extent of the development of the disease was determined visually in % infection of the entire leaf area.

Botrytis cinerea = test: Activity against gray mold on bell pepper leaves caused by Botrytis cinerea, protective application; type: in vivo; conditions: 250 ppm; bell pepper "Neusiedler Ideal Elite"; after 5 days; untreated 90% infected
Experimental: as §1
Activity Against Gray Mold on Bell Pepper Leaves Caused by Botrytis cinerea, Protective Application
Bell pepper seedlings of the cultivar “Neusiedler Ideal Elite” were, after 2-3 leaves were well-developed, sprayed to runoff point with an aqueous suspension having the concentration of active compound stated below. The next day, the treated plants were inoculated with a spore suspension of Botrytis cinerea which contained 1.7×10^6 spores/ml in a 2% strength aqueous biomalt solution. The test plants were then placed in a dark climatized chamber at 22-24° C. and high atmospheric humidity. After 5 days, the extent of the fungal infection on the leaves could be determined visually in %.

Row | SMILES | infection of treated leaf areas (Alternaria solani) | infection of treated leaf areas (Pyrenophora teres) | infection of treated leaf areas (Botrytis cinerea) | melting point
1 | CC(C)Oc1nc(-n2cccn2)nc(Cl)c1-c1c(F)cc(F)cc1F [1), 4-Chloro-6-isopropoxy-2-(pyrazol-1-yl)-5-(2,4,6-trifluorophenyl)pyrimidine] | only little infection | only little infection | only little infection | 106 to 107 °C
2 | CON=C(N)c1nc(Cl)c(-c2c(F)cc(F)cc2F)c(OC(C)C)n1 [3), O-Methyl (4-chloro-6-isopropoxy-5-(2,4,6-trifluorophenyl)pyrimidin-2-yl)carbamidoxime] | only little infection | only little infection | only little infection | 
3 | CC(C)(C)Oc1nc(-c2ccccn2)nc(Cl)c1-c1c(F)cccc1Cl [4)] | only little infection | only little infection | only little infection | 
4 | CC(C)Oc1nc(C#N)nc(Cl)c1-c1c(F)cc(F)cc1F [5), 4-Chloro-2-cyano-6-isopropoxy-5-(2,4,6-trifluorophenyl)pyrimidine] |  |  |  | 32 °C
